Laboratory results published in ChEMBL document CHEMBL1201862, “PubChem BioAssay data set” (2004).
Active and inactive are the calls of the source. Cut-off read from the data, not from the text of the source, for most assays here: actives have a measured EC50 and inactives only a lower limit.

Key:
[1] = test system: INS1; assay: beta cell apoptosis inhibitors, cytokine rescue, dose response, luminescence, retest (AID 449756); type: functional, cell-based; conditions: Rattus norvegicus;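 note: cell death triggered by IL-1 beta plus TNF-alpha plus IFN-gamma mixture; protective hits raise ATP signal compared with cytokine alone wells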
[2] = inhibitors of firefly luciferase expression or activity, dose response, H4 neuroglioma cells, luminescence (AID 1990); type: functional, cell-based
[3] = Luminescence Cell-Based Dose Response HTS to Identify Inhibitors of 5'UTR Stem-Loop Driven Prion Protein mRNA Translation in H4 Neuroglioblastoma Cells. [Related pubchem assays: 1827 (Project Summary), 1813 (Primary HTS)]; type: functional
[4] = inhibitors of SNCA 5'UTR-driven reporter translation, confirmation, H4 neuroglioma cells, luminescence (AID 1988); type: functional, cell-based
[5] = target: Cytochrome P450 3A4 (Homo sapiens, UniProt P08684);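 note: CYP3A4 tested as one member of a cytochrome P450 panel screen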
Sequence of Cytochrome P450 3A4 (P08684 whole entry): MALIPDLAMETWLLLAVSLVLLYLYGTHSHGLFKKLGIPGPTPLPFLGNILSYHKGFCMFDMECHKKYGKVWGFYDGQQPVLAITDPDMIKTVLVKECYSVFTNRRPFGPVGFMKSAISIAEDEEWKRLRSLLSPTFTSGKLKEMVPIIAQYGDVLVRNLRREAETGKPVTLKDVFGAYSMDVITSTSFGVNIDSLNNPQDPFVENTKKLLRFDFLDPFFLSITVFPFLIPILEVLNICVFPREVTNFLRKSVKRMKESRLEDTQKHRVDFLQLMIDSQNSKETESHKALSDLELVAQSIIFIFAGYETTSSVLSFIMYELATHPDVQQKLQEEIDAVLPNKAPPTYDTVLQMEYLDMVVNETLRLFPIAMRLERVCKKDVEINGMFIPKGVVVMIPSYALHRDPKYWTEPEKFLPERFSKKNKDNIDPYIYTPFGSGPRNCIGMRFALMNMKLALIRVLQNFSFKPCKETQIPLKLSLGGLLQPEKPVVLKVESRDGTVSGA

[6] = target: T1, Heat shock factor protein 1 (Mus musculus, UniProt P38532); assay: inhibition of MG132-induced HSE-luciferase signal, confirmation, cell-based, NIH3T3, luminescence, dose retest (AID 2382); type: functional;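 note: NIH3T3 fibroblasts with HSF1-driven luciferase reporter stressed by proteasome inhibitor MG132; luminescence from HSF1-driven luciferase expression after 8 hours of MG132 stress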
T1 sequence (P38532 whole entry): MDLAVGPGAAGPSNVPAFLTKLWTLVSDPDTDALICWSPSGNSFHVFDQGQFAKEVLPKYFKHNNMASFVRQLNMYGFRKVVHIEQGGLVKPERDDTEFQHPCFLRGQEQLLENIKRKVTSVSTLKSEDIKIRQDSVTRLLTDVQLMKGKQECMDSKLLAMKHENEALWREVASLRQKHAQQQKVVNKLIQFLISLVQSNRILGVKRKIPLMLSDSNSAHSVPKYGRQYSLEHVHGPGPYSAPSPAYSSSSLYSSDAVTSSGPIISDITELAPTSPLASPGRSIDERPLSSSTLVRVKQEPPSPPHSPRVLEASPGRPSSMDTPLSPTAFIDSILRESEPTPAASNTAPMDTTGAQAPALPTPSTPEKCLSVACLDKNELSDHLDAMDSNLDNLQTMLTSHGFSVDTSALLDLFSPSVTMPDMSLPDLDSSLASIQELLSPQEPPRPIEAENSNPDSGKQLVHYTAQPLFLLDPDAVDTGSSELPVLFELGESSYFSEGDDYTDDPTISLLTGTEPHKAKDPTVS

[7] = target: T2, RNA-binding protein pos-1 (Caenorhabditis elegans, UniProt G5EF15); assay: inhibitors of POS-1/mex-3 RNA binding, dose response, biochemical, fluorescence polarization (AID 1964);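 note: purified POS-1 fused to maltose binding protein made in E. coli; potency of compounds blocking POS-1 binding to fluorescent RNA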
T2 sequence (G5EF15 whole entry): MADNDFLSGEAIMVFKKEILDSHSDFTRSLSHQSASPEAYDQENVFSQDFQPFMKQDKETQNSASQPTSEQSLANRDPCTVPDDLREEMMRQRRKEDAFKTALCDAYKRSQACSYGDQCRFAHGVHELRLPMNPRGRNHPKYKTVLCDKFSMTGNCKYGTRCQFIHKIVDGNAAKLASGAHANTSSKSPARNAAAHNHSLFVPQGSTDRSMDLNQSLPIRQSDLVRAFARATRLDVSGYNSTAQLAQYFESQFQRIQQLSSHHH

[8] = control 3'UTR Renilla luciferase suppression, dose response, counter-screen for Shn3 inhibitor project, cell-based, Clone20-Shn3RL, cherry-picked (AID 624133); type: functional
[9] = test system: Streptococcus sp. 'group A'; assay: growth inhibition of control SK(-) GAS strain, dose response, counter-screen for streptokinase expression inhibitor project, luminescence, kanamycin, BacTiterGlo, confirmation (AID 1900); type: functional, organism-based
[10] = target: T3, Streptokinase A (Streptococcus pyogenes serotype M1, UniProt P10520); assay: S. pyogenes streptokinase expression inhibitors, potency, dose response, plasminogen activation absorbance, OD405 (AID 1914); type: functional, Streptococcus pyogenes M1 GAS;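 note: secreted streptokinase activity via plasminogen activation per viability signal from cell pellet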
T3 sequence (P10520 whole entry): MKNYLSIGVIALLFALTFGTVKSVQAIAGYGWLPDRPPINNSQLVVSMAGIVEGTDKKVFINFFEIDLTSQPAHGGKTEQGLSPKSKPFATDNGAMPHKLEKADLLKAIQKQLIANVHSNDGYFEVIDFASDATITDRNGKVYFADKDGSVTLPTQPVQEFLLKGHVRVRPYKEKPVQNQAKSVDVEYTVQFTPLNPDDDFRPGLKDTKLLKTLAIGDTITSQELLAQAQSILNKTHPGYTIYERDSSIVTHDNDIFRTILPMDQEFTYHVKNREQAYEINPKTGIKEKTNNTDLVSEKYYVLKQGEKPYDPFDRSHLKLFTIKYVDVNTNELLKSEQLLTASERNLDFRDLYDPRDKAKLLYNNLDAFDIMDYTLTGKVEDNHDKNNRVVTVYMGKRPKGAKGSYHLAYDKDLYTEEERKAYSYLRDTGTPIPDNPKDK

[11] = test system: Streptococcus; assay: Group A Streptococcus viability loss, dose response, counter-screen for streptokinase expression inhibitor project, luminescence, BacTiterGlo (AID 1915); type: functional, organism-based;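 note: potency for reduction of bacterial viability or growth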

C=C(C)C(=O)N1CC2(CC(c3cccc(NC(=O)COc4ccc(Cl)cc4)c3)=NO2)C[C@@H]1C(N)=O (stereo not given in full)
AC50 [1]: 9.67 µM (active)

COc1ccc(NC(=O)CN2C(=O)COc3ccc(S(=O)(=O)N4CCCCCC4)cc32)cc1
EC50 [2]: > 120 µM (not active)
EC50 [3]: > 120 µM (not active)
EC50 [4]: > 120 µM (not active)

CCn1c(SCc2cc(O)nc3ccccc23)nnc1C1CC1
EC50 [2]: > 120 µM (not active)
EC50 [3]: > 120 µM (not active)
EC50 [4]: > 120 µM (not active)

CC(O)CNc1nc2sc3c(c2c(=O)n1Cc1ccco1)CCCCC3 (stereo not given)
AC50 [1]: 45 µM (active)

CCNc1ncc2nc(CCc3ccccc3)c(=O)n(C)c2n1
AC50 [5]: 31.6 µM (inconclusive)

CCc1ccc(OC)c(S(=O)(=O)Nc2ccc(Cc3ccncc3)cc2)c1
AC50 [1]: 3.7 µM (active)

O=S(=O)(c1cccs1)N1CCN(CC(O)COc2cc(Cl)ccc2Cl)CC1 (stereo not given)
AC50 [1]: 5.11 µM (active)

CC(=O)OC[C@H]1O[C@@H](O/N=C(\C)CCN2CCCc3nc(C)c(C)cc32)[C@H](OC(C)=O)[C@@H](OC(C)=O)[C@H]1OC(C)=O
AC50 [5]: 3.98 µM (inconclusive)

CCOc1ccccc1-c1nnc(SCC(=O)NC2CC3CCC2C3)n1CC (stereo not given)
EC50 [2]: > 120 µM (not active)
EC50 [3]: > 120 µM (not active)
EC50 [4]: 16.7 µM (active)

CCOC(=O)c1cccc(NC(=O)Nc2ccc(OCC)cc2)c1
EC50 [2]: 11.2 µM (inconclusive)
EC50 [3]: 10.8 µM (active)
EC50 [4]: 9.81 µM (active)

CC1(C)CC(NCc2ccc3c(c2)OCO3)CCO1 (stereo not given)
EC50 [6]: > 195 µM (not active)
AC50 [5]: 17.8 µM (inconclusive)

S=C(c1ccc(-c2ccccc2)cc1)N1CCOCC1
EC50 [2]: 10.9 µM (active)
EC50 [3]: 15.5 µM (active)
EC50 [4]: 9.91 µM (active)

CC(=O)N1CCC2(CCCN(c3ccccc3)C2)CC1
AC50 [5]: 20 µM (inconclusive)

Cc1cc(NC(=O)CSc2nc3ccccc3[nH]2)n(-c2ccccc2)n1
EC50 [2]: > 120 µM (not active)
EC50 [3]: > 120 µM (not active)
EC50 [4]: > 120 µM (not active)

COc1ccc(N2C(=O)NC(=O)/C(=C\c3cn(C)c4ccccc34)C2=O)cc1
EC50 [7]: 1.05 µM (active)

Cc1ccc(C(=O)NC2CCN(S(=O)(=O)c3ccc(C)cc3)CC2)cc1
EC50 [2]: > 120 µM (not active)
EC50 [3]: 4.43 µM (active)
EC50 [4]: 45.4 µM (active)

O=C(CSc1nc2cc(Cl)c[nH]c-2n1)N1CCOCC1
AC50 [8]: 32.3 µM (active)

CCOc1ccc(C(=O)N/N=C(\c2ccccc2)c2ccccn2)cc1
EC50 [9]: 4.25 µM (active)
EC50 [10]: > 150 µM (not active)
EC50 [11]: 11.8 µM (active)
AC50 [1]: 1.19 µM (active)

CCCC/C(=N\CCc1c(C)[nH]c2ccc(OC)cc12)C1=C(O)CC(c2ccccc2)CC1=O (stereo not given)
EC50 [2]: 9.11 µM (active)
EC50 [3]: > 120 µM (not active)
EC50 [4]: 2.61 µM (active)

COc1ccccc1NC(=O)Nc1nc(-c2cccnc2)nc2ccccc12
AC50 [5]: 0.631 µM (inconclusive)
